Experimental findings from PMC8426295, “Cytotoxic and radiosensitising effects of a novel thioredoxin reductase inhibitor in breast cancer” (Investigational New Drugs, 2021) are described below.

Test [1] has as its system TrxR. The experiment in a line: Western blotting of TrxR expression. Conditions: clonogenic IC50 concentration, 48 h. The format is cell-based, human. The method, then:
Cells were treated with IQ9 (clonogenic IC50 concentrations) for 48 h, harvested, and resuspended in 1 mL of RIPA buffer (Sigma, UK) supplemented with 1X Halt phosphatase inhibitor cocktail, protease inhibitor cocktail, and EDTA. Samples were run on an SDS-polyacrylamide gel and transferred onto a 0.2 μm nitrocellulose membrane (GE Healthcare). The membrane was then blocked using 5% milk powder in 0.1% PBS/ Tween20, for 1 h at room temperature and then incubated with primary antibody overnight at 4 °C. Anti-β-actin antibody (Abcam) was used as a loading control. Primary antibodies were rabbit anti-human Trx (Abcam; 1:1000), mouse anti-human antibody (Abcam; 1:500), and rabbit anti-human Txnip (Abcam; 1:500). For Trx and Txnip, bands were detected using an Odyssey FC Imager (LI-COR). Images were obtained and fluorescence intensity quantified using Image Studio Software (version 4). The signals for Trx and Txnip were normalised against β-actin. For TrxR, bands were detected using an Amersham Enhanced Chemiluminescence system (GE Healthcare).
Background: Immunoblotting shows a protein as a band on a membrane.

A further test relates to breast cancer cells. The experiment in a line: Potency against breast cancer cells (IC50 range, comparison of TrxR inhibitors). The format is cell-based. Conditions: Homo sapiens; range over the cell lines and assays of this study.
The subject of test [2] is T47D cells. The experiment in a line: Clonogenic survival assay. The format is cell-based. Conditions: Homo sapiens. The method, then:
(§1) 5 × 10^5 cells were seeded in T25 cm^2 tissue culture flasks and incubated overnight. The sub-confluent cells were then treated either for 4-h or 48-h with IQ9 (0–5000 nM) or doxorubicin (10–20 nM). Following drug treatment, cells were collected, counted, and plated at low-density, in triplicate, and incubated, at 37 °C, 5% CO2, undisturbed, for 2 weeks for TNBC cells and 3 weeks for luminal cells, for colony formation. Colonies were fixed (50% methanol in 0.9% saline solution) and stained (0.5% crystal violet solution). Colonies consisting of more than 50 cells were confirmed by microscopy and scored as survivors. The plating efficiency (PE) was calculated as numbers of colonies formed/ numbers of cells plated. For single-agent treatment, drug or radiation, the surviving fraction was calculated as: number of colonies formed/ (numbers of cell plated x PE). For drug radiation combination experiments, cytotoxicity of drug treatment was accounted for by calculating surviving fraction as: number of colonies formed from each radiation dose/ (number of cells plated × PE × surviving fraction of drug-treated cell at 0 Gy).
(§2) IC50 values were calculated from dose-response curves using an SPSS regression model between inhibition ratios and concentration gradients. The radiobiological parameters: alpha (α), beta (β), α/β ratio, and surviving fraction at 2 Gy (SF2) were extracted from the survival curves fitted using the LQ model. All results are presented as average ± standard deviation (SD) of three independent experiments, each performed in triplicate. Data were analysed using the student T-test and ANOVA one-way test. Statistical analysis was performed using SPSS 23.0 software. Values of P < 0.05 were considered statistically significant.

The test system of test [3] is MDA-MB-436 cells. The test is described as follows: Clonogenic survival assay. The test is classed as cell-based. Conditions: Homo sapiens. As to the method:
as §1, §2

Another test relates to MDA-MB-231 cells. The test is described as follows: Cell proliferation assay (cell count). The test is classed as cell-based. Conditions: Homo sapiens, MDA-MB-231, 48 h. As to the method: (§3) 1 × 10^5 cells (2 × 10^5 for T47D’s) were seeded, in triplicate, in 6-well plates and incubated overnight before being treated with IQ9 (0–5000 nM) or doxorubicin (400–600 nM) (positive control and comparator). Total cells were counted after 48 h using a haemocytometer. The total cell count in drug treatment wells was normalised as a percentage of the total cells in vehicle control wells.
as §2

Test [4] deals with T47D cells. The experiment in a line: Cell proliferation assay (cell count). Conditions: Homo sapiens, 48 h. The format is cell-based. The method, then:
as §3, §2

Test [5] relates to MDA-MB-436 cells. The experiment in a line: Cell proliferation assay (cell count). The format is cell-based. Conditions: Homo sapiens, MDA-MB-436, 48 h. The method, then:
as §3, §2

Another test concerns MCF-7 cells. The test is described as follows: Cell proliferation assay (cell count). The format is cell-based. Conditions: Homo sapiens, MCF7, 48 h. As to the method: as §3, §2
Another test deals with MDA-MB-468 cells. The experiment in a line: Cell proliferation assay (cell count). Conditions: Homo sapiens, MDA-MB-468, 48 h. The format is cell-based. As to the method:
as §3, §2

Test [6] addresses T1, TrxR (Homo sapiens, UniProt Q16881).
T1 sequence (Q16881 1-649): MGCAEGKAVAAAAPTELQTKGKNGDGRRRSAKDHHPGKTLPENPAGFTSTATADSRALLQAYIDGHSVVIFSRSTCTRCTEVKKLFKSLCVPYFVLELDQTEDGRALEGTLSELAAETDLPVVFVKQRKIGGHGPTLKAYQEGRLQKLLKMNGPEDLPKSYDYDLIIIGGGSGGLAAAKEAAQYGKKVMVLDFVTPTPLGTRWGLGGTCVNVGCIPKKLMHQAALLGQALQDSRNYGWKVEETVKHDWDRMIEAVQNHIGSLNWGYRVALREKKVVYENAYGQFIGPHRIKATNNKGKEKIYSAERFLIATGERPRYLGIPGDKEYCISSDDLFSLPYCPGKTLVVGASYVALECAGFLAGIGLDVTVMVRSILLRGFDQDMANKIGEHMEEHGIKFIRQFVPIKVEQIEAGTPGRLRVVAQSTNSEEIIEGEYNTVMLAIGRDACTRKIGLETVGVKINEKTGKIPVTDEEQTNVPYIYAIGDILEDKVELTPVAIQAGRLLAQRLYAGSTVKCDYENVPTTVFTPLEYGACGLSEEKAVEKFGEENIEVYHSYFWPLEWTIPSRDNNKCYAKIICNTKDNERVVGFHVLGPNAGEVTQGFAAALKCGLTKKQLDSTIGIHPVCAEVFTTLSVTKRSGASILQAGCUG
The test is described as follows: Thioredoxin reductase activity assay (insulin reduction) on lysates of drug-treated breast cancer cells. The format is cell-based. The method, then: TrxR enzyme activity was assessed using an insulin reduction assay. Briefly, 2 × 10^6 cells were seeded, in triplicate, in 75c m^2 tissue culture flasks. After 24 h, sub-confluent cells were treated with either IQ9 (0–1000 nM) or 1000 nM auranofin (as a positive control) for 4 or 48 h, then trypsinised, washed, and resuspended in M-PER™ Mammalian Protein Extraction Reagent (ThermoFisher, USA) supplemented with 1X Halt protease inhibitor and EDTA. Protein concentration was determined using the Bradford assay. 80 μg of protein lysates isolated from each treatment conditions and reaction mix (HE buffer (100 mM HEPES pH 7.2, 5 mM EDTA), 20 μM Trx, 1.7 mM insulin, 10 mM β-NADPH) were added to the 96-well plate and incubated for 1 h at 37 °C. The reaction was stopped by adding stop buffer containing 6 M guanidine hydrochloride, 50 mM Tris, and 10 mM DTNB (Sigma, UK), with a final pH of 8.0. The plate was read at room temperature using a BMG Fluostar Optima Microplate Reader at 412 nm wavelength. The TrxR activity was expressed as the percentage of control, no drug-treated.

For the compound `COC1=CC(=O)c2c(c(COc3c(F)cc(F)cc3F)cn2C)C1=O` [IQ9], the “expression of TrxR” value in the test on TrxR [1] (TNBC cells) is reported as “little effect, if any”; with TrxR [1] (luminal cells) it was “Increased expression”. In addition, the IC50 with breast cancer cells is 200 to 2000 nM; with T47D cells [2] (4 h) it was 2070 ± 53.7 nM; in the test with T47D cells [2] (48 h), 1880 ± 298 nM; in the test with MDA-MB-436 cells [3] (MDA-MB-436, 4 h) it was 195 ± 4.5 nM; in the test on MDA-MB-436 cells [3] (MDA-MB-436, 48 h), 236 ± 71.5 nM; with MDA-MB-231 cells it was 246 ± 55.3 nM. In addition, the IC50 in the test on T47D cells [4] stood at 1430 ± 255 nM; in the test on MDA-MB-436 cells [5], 171 ± 81.4 nM; in the test with MCF-7 cells it was 379 ± 42.4 nM; with MDA-MB-468 cells, 425 ± 155 nM. Further, on TrxR [6] (1000 nM, 4 h, all TNBC cell lines), the “inhibition of TrxR activity” value is “complete inhibition”. This compound also came in with an inhibition at 1 µM on TrxR [6] (1000 nM, 4 h, luminal cell lines) of roughly 70%. The “inhibition in TrxR activity” value against TrxR [6] (48 h exposure, T47D) is recorded as “no significant inhibition”.

The IC50 is the point on the concentration scale where inhibition reaches its midpoint. By inhibition is commonly meant the drop in the measured response relative to a control, in per cent. A high value points to a strong effect.
